Data published in PMC6934184, “Selective DNA-PKcs inhibition extends the therapeutic index of localized radiotherapy and chemotherapy” (The Journal of Clinical Investigation, 2019).

Target: T1, CAMK2B (CaMKII beta) (Homo sapiens, UniProt Q13554)
T1 construct: purchased Thermo Fisher Scientific (Life Technologies) SelectScreen
Test: SelectScreen Z'LYTE
Assay type: biochemical
In short: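 SelectScreen broad panel; activity (Z'LYTE, Adapta) plus binding formats. ATP: Km app for CSF1R Z'LYTE; 10 for CAMK1 Adapta. Readout = % per kinase.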

T1 sequence (Q13554 whole entry): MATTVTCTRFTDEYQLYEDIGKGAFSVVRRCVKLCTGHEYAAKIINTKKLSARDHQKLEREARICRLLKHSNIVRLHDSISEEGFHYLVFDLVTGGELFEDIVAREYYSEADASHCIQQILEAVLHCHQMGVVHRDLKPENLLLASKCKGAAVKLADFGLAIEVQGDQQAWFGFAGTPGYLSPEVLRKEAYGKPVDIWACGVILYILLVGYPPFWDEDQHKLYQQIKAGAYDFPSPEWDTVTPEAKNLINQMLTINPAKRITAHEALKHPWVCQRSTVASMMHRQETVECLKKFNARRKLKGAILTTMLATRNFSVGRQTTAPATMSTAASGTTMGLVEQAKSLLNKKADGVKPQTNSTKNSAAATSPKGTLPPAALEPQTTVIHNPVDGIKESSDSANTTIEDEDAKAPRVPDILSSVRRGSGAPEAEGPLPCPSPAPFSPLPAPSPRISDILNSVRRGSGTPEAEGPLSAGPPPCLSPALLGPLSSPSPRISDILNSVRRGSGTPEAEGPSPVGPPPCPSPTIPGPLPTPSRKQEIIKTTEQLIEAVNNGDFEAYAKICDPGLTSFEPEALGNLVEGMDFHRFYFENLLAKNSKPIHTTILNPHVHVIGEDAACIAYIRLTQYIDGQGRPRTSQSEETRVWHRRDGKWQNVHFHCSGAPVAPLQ

SMILES: CN(C(=O)CN1CCOCC1)c1ccc2sc3c(-c4cccc5c(=O)cc(N6CC7CCC(C6)O7)oc45)cccc3c2c1 [NU5455]
- inhibition at 1 µM: 0.7%
